US20250101009A1, “Compounds, Compositions and Methods for Treatment of Age-Related Ocular Disorders” (priority 2022, published 2025)

Experiments:
acetylcholinesterase = biological target: T1, acetylcholinesterase (Homo sapiens, UniProt P22303); assay: Hydrolysis study in vitro with acetylcholinesterase (HPLC); format: in vitro ADME; settings: for assay of compound remaining during enzymatic hydrolysis: acetylcholinesterase 2.0 mg/ml, simulated tear pH 7.4, 37.5° C.
T1 construct: purchased
Procedure: The commercial esterase was dissolved in simulated tear (pH 7.4). Dissolving an appropriate amount of the compounds of the invention in solvent. The stock solutions were kept in screw-capped vials at 4° C. The reaction was initiated by adding stock solution of the prodrug to preheated esterase solution in a screw-capped vial at 37.5° C. The solution was kept in a water bath at 37.5° C. and at appropriate time intervals. 20 mL aliquot was taken and, after filtration using membrane syringe filter, analyzed immediately by HPLC.
The tear fluid was prepared by dissolving sodium chloride (0.67%, w/v), sodium bicarbonate (0.2% w/v) and calcium chloride dihydrate (0.008% w/v) in water and pH was adjusted to 7.4.
(§1) The acetylcholinesterase was dissolved in simulated tear (pH 7.4) to give a concentration of 2.0 mg/ml. Dissolving the appropriate number of compound 1 in pH 7.0 buffer solution to obtain a concentration of […]. The stock solutions were kept in screw-capped vials at 4° C. The reaction was initiated by adding 20 uL of a stock solution of the compound 1 in pH 7.0 buffer solution to 1 ml of preheated esterase solution in a screw-capped vial at 37.5° C., for a total of 10 identical reaction solutions. The reaction solutions were kept in a water bath at 37.5° C. and at 20 min intervals an aliquot was taken and, after filtration using membrane syringe filter, analyzed immediately by HPLC.
as §1, with “compound 2” for “compound 1”, “20 μL” for “20 uL”, “of 11” for “of 10”
as §1, with “compound 3” for “compound 1”, “20 μL” for “20 uL”, “1 mL” for “1 ml”, “of 12” for “of 10”

rabbit pupil = assay: Miotic effect in rabbits (pupil diameter); format: in vivo, male New Zealand White rabbits
Procedure: The ocular activity evaluation based on the miotic effect in rabbits
The pupil size was determined for several compounds in male New Zealand White rabbits. Pilocarpine hydrochloride (Vuity™) was used as positive control. The pupillometer was placed in the eye socket of the rabbit, and the camera was taken 0 min before and 5 min, 10 min, 15 min, 30 min, 45 min and 1 h after dosing. For the latter picture, take three photos at each time point. After the experiment, the pictures were sorted out to observe the pupil change trend after dosing. This method can be used to evaluate whether the miotic agent moiety in the compounds of the invention can constrict the rabbit's pupil.
Under a constant light source (light intensity 40 Lux), the rabbits were fixed in the rabbit box without anesthesia. Before the experiment, the pupil diameter (mm) before drug administration was measured with a pupil measuring ruler and photographed. […] The time of administration was recorded, and the pupil diameter was measured with a pupillometer and photographed with Canon EOS M6 Mark II (SLR) after 5 min, 10 min, 15 min, 30 min, 45 min, 1 h, 2 h, 3 h, 4 h and 5 h, respectively. […]

[1] = assay decreased more with increasing time

T1 sequence (P22303 32-614, species assumed): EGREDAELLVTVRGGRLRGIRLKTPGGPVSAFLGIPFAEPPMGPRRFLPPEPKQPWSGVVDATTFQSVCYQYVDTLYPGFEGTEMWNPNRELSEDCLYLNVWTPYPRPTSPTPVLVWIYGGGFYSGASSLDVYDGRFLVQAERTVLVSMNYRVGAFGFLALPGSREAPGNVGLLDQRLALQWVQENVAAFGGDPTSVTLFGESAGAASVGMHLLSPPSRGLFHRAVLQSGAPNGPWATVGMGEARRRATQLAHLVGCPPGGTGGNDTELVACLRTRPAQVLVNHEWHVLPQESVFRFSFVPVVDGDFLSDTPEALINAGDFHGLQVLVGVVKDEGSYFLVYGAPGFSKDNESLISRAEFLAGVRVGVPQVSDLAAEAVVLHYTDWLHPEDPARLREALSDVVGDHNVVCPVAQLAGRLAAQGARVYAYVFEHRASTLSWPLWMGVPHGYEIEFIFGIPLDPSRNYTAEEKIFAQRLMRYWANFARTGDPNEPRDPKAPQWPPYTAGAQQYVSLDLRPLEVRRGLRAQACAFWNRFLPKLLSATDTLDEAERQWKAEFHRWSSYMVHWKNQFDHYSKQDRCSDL

Compound | assay of compound remaining during enzymatic hydrolysis (acetylcholinesterase; 0 min) [%] | assay of compound remaining during enzymatic hydrolysis (acetylcholinesterase; 20 min) [%] | assay of compound remaining during enzymatic hydrolysis (acetylcholinesterase; 40 min) [%] | assay of compound remaining during enzymatic hydrolysis (acetylcholinesterase; 60 min) [%] | assay of compound remaining during enzymatic hydrolysis (acetylcholinesterase; 80 min) [%] | assay of compound remaining during enzymatic hydrolysis (acetylcholinesterase; 100 min) [%] | assay of compound remaining during enzymatic hydrolysis (acetylcholinesterase; 120 min) [%] | assay of compound remaining during enzymatic hydrolysis (acetylcholinesterase; 140 min) [%] | assay of compound remaining during enzymatic hydrolysis (acetylcholinesterase; 160 min) [%] | assay of compound remaining during enzymatic hydrolysis (acetylcholinesterase; 180 min) [%] | assay of compound remaining during enzymatic hydrolysis (acetylcholinesterase; 200 min) [%] | hydrolysis by acetylcholinesterase (in words) (acetylcholinesterase; after 200 minutes) | rabbit pupil under treatment (recorded images) (rabbit pupil) | miotic effect in rabbits versus positive control (rabbit pupil; 1.25%, 20 μL/eye topical, compared with Vuity 1.25%) | assay of compound remaining during enzymatic hydrolysis (acetylcholinesterase; 220 min) [%] | hydrolysis by acetylcholinesterase (in words) (acetylcholinesterase; [1]) | assay of compound remaining during enzymatic hydrolysis (acetylcholinesterase; 240 min) [%]
CC[C@@H]1C(=O)OC[C@@H]1Cc1c[n+](COC(=O)CCCC[C@@H]2CCSS2)cn1C [Compound 1, 3-(((5-((R)-1,2-dithiolan-3-yl)pentanoyl)oxy)methyl)-5-(((3R,4S)-4-ethyl-5-oxotetrahydrofuran-3-yl)methyl)-1-methyl-1H-imidazol-3-ium chloride] | 70.29 | 56.17 | 34.03 | 30.13 | 19.93 | 17.19 | 15.06 | 11.77 | 8.45 | 6.94 | 5.05 | hydrolyzed by acetylcholinesterase almost completely | shrinking | comparable to the positive control drug | – | – | –
CC[C@@H]1C(=O)OC[C@@H]1Cc1c[n+](CCOC(=O)CCCC[C@@H]2CCSS2)cn1C [Compound 2, 3-(2-((5-((R)-1,2-dithiolan-3-yl)pentanoyl)oxy)ethyl)-5-(((3R,4S)-4-ethyl-5-oxotetrahydrofuran-3-yl)methyl)-1-methyl-1H-imidazol-3-ium chloride] | 100.00 | 95.69 | 88.08 | 86.47 | 80.61 | 77.56 | 75.40 | 72.81 | 68.28 | 65.90 | 63.68 | – | – | – | 60.88 | hydrolyzed by acetylcholinesterase | –
CC[C@@H]1C(=O)OC[C@@H]1Cc1c[n+](CCOCCOCCOC(=O)CCCC[C@@H]2CCSS2)cn1C [Compound 3, 3-(2-(2-(2-((5-((R)-1,2-dithiolan-3-yl)pentanoyl)oxy)ethoxy)ethoxy)ethyl)-5-(((3R,4S)-4-ethyl-5-oxotetrahydrofuran-3-yl)methyl)-1-methyl-1H-imidazol-3-ium] | 95.40 | 88.83 | 88.26 | 79.40 | 75.30 | 70.87 | 68.62 | 63.48 | 62.92 | 59.60 | 54.50 | – | – | – | 55.89 | hydrolyzed by acetylcholinesterase | 51.61
